Assay results as given in patent publication US8530468B2 (Cancer Research Technology Limited, priority 2008, dated 2013).
Like-named read-outs stand apart in the source and are kept apart here.

Assays:
[1] = biological target: T1, CHK1 (Homo sapiens, UniProt O14757); experiment: CHK1 kinase function inhibition (DELFIA assay, phosphorylation of CDC25C peptide); format: biochemical; conditions: CHK1 1 nM, ATP 30 μM, 30 minutes at room temperature
T1 sequence (O14757 1-476): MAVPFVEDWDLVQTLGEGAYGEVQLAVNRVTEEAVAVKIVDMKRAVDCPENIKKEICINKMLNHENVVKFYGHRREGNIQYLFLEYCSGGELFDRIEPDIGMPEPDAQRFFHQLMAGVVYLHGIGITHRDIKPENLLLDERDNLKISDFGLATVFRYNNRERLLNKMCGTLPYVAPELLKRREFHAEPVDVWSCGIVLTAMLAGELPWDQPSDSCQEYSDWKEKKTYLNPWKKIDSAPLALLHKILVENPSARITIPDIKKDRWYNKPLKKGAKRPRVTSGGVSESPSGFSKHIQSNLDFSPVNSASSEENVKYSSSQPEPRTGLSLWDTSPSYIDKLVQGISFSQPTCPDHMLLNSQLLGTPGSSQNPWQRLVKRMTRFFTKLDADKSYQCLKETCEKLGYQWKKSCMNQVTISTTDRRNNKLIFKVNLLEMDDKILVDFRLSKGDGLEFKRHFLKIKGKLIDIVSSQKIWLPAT

[2] = tested on: HT29 colon carcinoma cells; experiment: Cytotoxicity assay (SRB); format: cell-based; conditions: Homo sapiens, read-out: SRB IC50 (concentration required to inhibit growth by 50%)
[3] = tested on: HT29 cells; experiment: Mitosis inhibition assay (MIA), checkpoint abrogation after etoposide; format: cell-based; conditions: Homo sapiens, HT-29, etoposide 50 μM 1 hour, then compound with nocodazole 100 ng/mL, 21 hours, read-out: MIA IC50 (concentration required to allow 50% of cells to enter mitosis)

Structure (SMILES) | IC50 [1] [µM] | IC50 [3] [µM] | IC50 ([2]; HT-29, 96 h) [µM] | IC50 ([2]; HT-29, 96 hours) [µM]
Cn1cnc2cnc(Nc3cnc(C#N)c(OCC4CCNCC4)n3)cc21 | ≤ 1 | – | – | –
N#Cc1ncc(Nc2cc3ccccc3cn2)nc1OCC1CCNCC1 [AA-003] | – | – | ≤ 10 | –
Clc1cccc2cc(Nc3cncc(OCC4CCNCC4)n3)ncc12 [AA-005] | 1 to 10 | – | – | –
N#Cc1ncc(Nc2cc3cccc(Cl)c3cn2)nc1OCC1CCNCC1 [AA-006] | – | – | ≤ 10 | –
N#Cc1ncc(Nc2cc3cccc(Cl)c3cn2)nc1OC1CCCNC1 (centres unmarked) [AA-007] | – | ≤ 10 | ≤ 10 | –
CN1CCCC(COc2nc(Nc3cc4cccc(Cl)c4cn3)cnc2C#N)C1 (centres unmarked) [AA-009] | ≤ 1 | – | – | –
CC(CN(C)C)Oc1nc(Nc2cc3cccc(Cl)c3cn2)cnc1C#N (centres unmarked) [AA-010] | – | ≤ 10 | ≤ 10 | –
N#Cc1ncc(Nc2cc3ccccc3cn2)nc1OC1CCCNC1 (centres unmarked) [AA-015] | – | – | ≤ 10 | –
N#Cc1cnc(Nc2cc3cccc(NCCN4CCOCC4)c3cn2)cn1 [AA-020, 5-(8-(2-morpholinoethylamino)isoquinolin-3-ylamino)pyrazine-2-carbonitrile] | ≤ 1 | ≤ 10 | – | ≤ 10
C[C@H](CN(C)C)Oc1nc(Nc2cc3ccccc3cn2)cnc1C#N [AA-022] | – | ≤ 10 | ≤ 10 | –
C[C@H](CN(C)C)Oc1nc(Nc2cc3cccc(Cl)c3cn2)cnc1C#N [AA-023] | – | ≤ 10 | ≤ 10 | –
Cc1cccc2cc(Nc3cnc(C#N)cn3)ncc12 [AA-024] | 1 to 10 | – | – | –
Cc1cccc2cc(Nc3cnc(C#N)c(OC(C)CN(C)C)n3)ncc12 (centres unmarked) [AA-025] | ≤ 1 | ≤ 10 | – | ≤ 10
N#Cc1ncc(Nc2cc3cccc(NCCCN4CCOCC4)c3cn2)nc1OCC1CC1 [AA-028] | ≤ 1 | – | – | –
N#Cc1ncc(Nc2cc3cccc(NCCN4CCOCC4)c3cn2)nc1OCC1CCOC1 (centres unmarked) [AA-029] | ≤ 1 | ≤ 10 | – | –
N#Cc1cnc(Nc2cc3cccc(NCCO)c3cn2)cn1 [AA-031, 5-(8-(2-Hydroxyethylamino)isoquinolin-3-ylamino)pyrazine-2-carbonitrile] | ≤ 1 | ≤ 10 | – | ≤ 10
COCCCNc1cccc2cc(Nc3cnc(C#N)cn3)ncc12 [AA-035] | ≤ 1 | ≤ 10 | – | –
CCOC(=O)COc1nc(Nc2cc3ccccc3cn2)cnc1C#N [AA-068, Ethyl 2-(3-cyano-6-(isoquinolin-3-ylamino)pyrazin-2-yloxy)acetate] | 1 to 10 | – | – | –
C[C@H](C[N+](C)(C)[O-])Oc1nc(Nc2cc3cccc(Cl)c3cn2)cnc1C#N [AA-071, (R)-2-(6-(8-Chloroisoquinolin-3-ylamino)-3-cyanopyrazin-2-yloxy)-N,N-dimethylpropan-1-amine oxide] | ≤ 1 | ≤ 10 | – | –
N#Cc1ncc(Nc2cc3cccc(F)c3cn2)nc1O[C@@H]1CCNC1 [AA-072] | ≤ 1 | ≤ 10 | – | –
N#Cc1cnc(Nc2cc3[nH]c(C4CC4)nc3cn2)cn1 [BB-001, 5-(2-Cyclopropyl-1H-imidazo[4,5-c]pyridin-6-ylamino)pyrazine-2-carbonitrile] | 1 to 10 | – | – | –
N#Cc1cnc(Nc2cc3c(cn2)ncn3CCN)cn1 [BB-019, 5-(1-(2-Aminoethyl)-1H-imidazo[4,5-c]pyridin-6-ylamino)pyrazine-2-carbonitrile] | 1 to 10 | – | – | –
N#Cc1cnc(Nc2cc3c(cn2)ncn3CC2CCCNC2)cn1 (centres unmarked) [BB-020, 5-(1-(Piperidin-3-ylmethyl)-1H-imidazo[4,5-c]pyridin-6-ylamino)pyrazine-2-carbonitrile] | 1 to 10 | – | – | –
N#Cc1cnc(Nc2cc3c(cn2)ncn3C2CCNCC2)cn1 [BB-022, 5-(1-(Piperidin-4-yl)-1H-imidazo[4,5-c]pyridin-6-ylamino)pyrazine-2-carbonitrile] | 1 to 10 | – | – | –
N#Cc1cnc(Nc2cc3c(cn2)ncn3[C@@H]2CCCNC2)cn1 [BB-023, (R)-5-(1-(Piperidin-3-yl)-1H-imidazo[4,5-c]pyridin-6-ylamino)pyrazine-2-carbonitrile] | 1 to 10 | – | – | –
CC(CN(C)C)Oc1nc(Nc2cc3[nH]cnc3cn2)cnc1C#N (centres unmarked) [BB-024, 5-(3H-Imidazo[4,5-c]pyridin-6-ylamino)-3-(1-(dimethylamino)propan-2-yloxy)pyrazine-2-carbonitrile] | ≤ 1 | – | – | –
CN1CCCC(Oc2nc(Nc3cc4[nH]cnc4cn3)cnc2C#N)C1 (centres unmarked) [BB-025] | ≤ 1 | – | – | –
CN1CCCC(COc2nc(Nc3cc4[nH]cnc4cn3)cnc2C#N)C1 (centres unmarked) [BB-026] | ≤ 1 | – | – | –
N#Cc1cnc(Nc2cc3cc[nH]c3cn2)cn1 [CC-001, 5-(1H-Pyrrolo[2,3-c]pyridin-5-ylamino)pyrazine-2-carbonitrile] | 1 to 10 | – | – | –

Second part, led by results:

IC50 [1] [µM] | IC50 [3] [µM] | Structure (SMILES) | IC50 ([2]; HT-29, 96 h) [µM] | IC50 ([2]; HT-29, 96 hours) [µM]
≤ 1 | ≤ 10 | N#Cc1ncc(Nc2cc3cccc(Cl)c3cn2)nc1O[C@@H]1CCNC1 [AA-008, (R)-5-(8-Chloroisoquinolin-3-ylamino)-3-(pyrrolidin-3-yloxy)pyrazine-2-carbonitrile] | – | ≤ 10
1 to 10 | – | COc1cc(OC)c2cnc(Nc3cnc(C#N)cn3)cc2c1 [AA-011, 5-(6,8-Dimethoxyisoquinolin-3-ylamino)pyrazine-2-carbonitrile] | – | –
≤ 1 | ≤ 10 | CN1CCC(COc2nc(Nc3cc4cccc(Cl)c4cn3)cnc2C#N)CC1 [AA-014] | – | ≤ 10
1 to 10 | – | N#Cc1cnc(Nc2cc3cccc(Br)c3cn2)cn1 [AA-017, 5-(8-Bromoisoquinolin-3-ylamino)pyrazine-2-carbonitrile] | – | –
1 to 10 | – | N#Cc1cnc(Nc2cc3cc(Cl)ccc3cn2)cn1 [AA-018, 5-(6-Chloroisoquinolin-3-ylamino)pyrazine-2-carbonitrile] | – | –
1 to 10 | – | N#Cc1cnc(Nc2cc3cccc(-c4cc[nH]n4)c3cn2)cn1 [AA-019, 5-(8-(1H-pyrazol-3-yl)isoquinolin-3-ylamino)pyrazine-2-carbonitrile] | – | –
1 to 10 | – | COc1cccc2cc(Nc3cnc(C#N)cn3)ncc12 [AA-021, 5-(8-methoxyisoquinolin-3-ylamino)pyrazine-2-carbonitrile] | – | –
≤ 1 | ≤ 10 | CC(CN(C)C)Oc1nc(Nc2cc3cccc(Br)c3cn2)cnc1C#N (centres unmarked) [AA-026] | – | ≤ 10
≤ 1 | ≤ 10 | N#Cc1cnc(Nc2cc3cccc(NCCCN4CCOCC4)c3cn2)cn1 [AA-027] | – | ≤ 10
≤ 1 | ≤ 10 | COc1nc(Nc2cc3cccc(NCCN4CCOCC4)c3cn2)cnc1C#N [AA-030] | – | –
≤ 1 | ≤ 10 | CC(CN(C)C)Oc1nc(Nc2cc3cccc(NCCO)c3cn2)cnc1C#N (centres unmarked) [AA-032] | – | ≤ 10
≤ 1 | ≤ 10 | N#Cc1cnc(Nc2cc3cccc(NCCCO)c3cn2)cn1 [AA-033] | – | ≤ 10
≤ 1 | ≤ 10 | COCCNc1cccc2cc(Nc3cnc(C#N)cn3)ncc12 [AA-036] | – | –
– | ≤ 10 | COCCNc1cccc2cc(Nc3cnc(C#N)c(O[C@H](C)CN(C)C)n3)ncc12 [AA-039] | – | ≤ 10
≤ 1 | – | COc1nc(Nc2cc3cccc(NCCO)c3cn2)cnc1C#N [AA-042] | – | –
≤ 1 | – | N#Cc1ncc(Nc2cc3cccc(NCCO)c3cn2)nc1OCC1CC1 [AA-045] | – | –
1 to 10 | – | CC(C)CCOc1nc(Nc2cc3cccc(NCCO)c3cn2)cnc1C#N [AA-046] | – | –
1 to 10 | – | N#Cc1ncc(Nc2cc3cccc(NCCO)c3cn2)nc1OCC1CCOC1 (centres unmarked) [AA-047] | – | –
≤ 1 | – | COc1nc(Nc2cc3ccccc3cn2)cnc1C#N [AA-048] | – | –
≤ 1 | – | CC(=O)Nc1cccc2cc(Nc3cnc(C#N)cn3)ncc12 [AA-062, N-(3-(5-Cyanopyrazin-2-ylamino)isoquinolin-8-yl)acetamide] | – | –
1 to 10 | – | COCCC(=O)Nc1cccc2cc(Nc3cnc(C#N)cn3)ncc12 [AA-063, N-(3-(5-Cyanopyrazin-2-ylamino)isoquinolin-8-yl)-3-methoxypropanamide] | – | –
≤ 1 | – | CC(=O)Nc1cccc2cc(Nc3cnc(C#N)c(O[C@H](C)CN(C)C)n3)ncc12 [AA-064] | – | –
1 to 10 | ≤ 10 | COCCNC(=O)c1cccc2cc(Nc3cnc(C#N)c(OC(C)CN(C)C)n3)ncc12 (centres unmarked) [AA-066] | – | –
1 to 10 | – | N#Cc1ncc(Nc2cc3ccccc3cn2)nc1OCC(=O)O [AA-069, 2-(3-Cyano-6-(isoquinolin-3-ylamino)pyrazin-2-yloxy)acetic acid] | – | –
1 to 10 | – | N#Cc1cnc(Nc2cc3c(Br)ccc(Cl)c3cn2)cn1 [AA-070, 5-(5-Bromo-8-chloroisoquinolin-3-ylamino)pyrazine-2-carbonitrile] | – | –
1 to 10 | – | N#Cc1cnc(Nc2cc3[nH]c(-c4ccc(N5CCNCC5)cc4)nc3cn2)cn1 [BB-006] | – | –
≤ 1 | – | N#Cc1cnc(Nc2cc3[nH]c(CCC4CCNCC4)nc3cn2)cn1 [BB-011] | – | –
1 to 10 | – | c1nc2cnc(Nc3cncc(OCC4CCNCC4)n3)cc2[nH]1 [BB-013] | – | –
≤ 1 | – | N#Cc1cnc(Nc2cc3c(cn2)ncn3[C@H]2CCCNC2)cn1 [BB-021, (S)-5-(1-(Piperidin-3-yl)-1H-imidazo[4,5-c]pyridin-6-ylamino)pyrazine-2-carbonitrile] | – | –
≤ 1 | – | N#Cc1ncc(Nc2cc3[nH]cnc3cn2)nc1O[C@@H]1CCNC1 [BB-027] | – | –
